Marks after values point to notes of the source that are not given here.
Key:
Assay type in all cases: in vivo, mouse (male C57BL/6J)
[1] = Body weight of mice on selenium diets
Text: (§1) Animal Care. Male C57BL/6J mice were housed singly and started on the experimental diets described below immediately after weaning (21 days of age). The mice were maintained in the Shared Aging Rodent Facility at the William S. Middleton Memorial Veterans Administration Medical Center (Madison, Wis.). Temperature and humidity were maintained at constant levels. Room light was controlled to provide 12-hr cycles of light and dark.
Experimental diets were created by Harlan Teklad (Madison, Wis.). Selenium content of the diets was determined by Covance Inc. (Madison, Wis.). […]
Thus, it was an object of the present invention to determine whether compositions and methods of the present invention could alter the expression levels (e.g., mRNA levels) of various genes. One group of genes analyzed were genes classically associated with selenium. As described above, the expression levels of genes were analyzed between mice with and without dietary selenium, or, between mice fed different sources of selenium) (See, e.g., Table 1, below).

[2] = tested on: brain (cerebral cortex) gene expression; assay: Gene expression in mouse brain (cerebral cortex, microarray) with dietary selenium vs selenium deficient diet; details: diet 1 ppm Se for 100 days vs selenium deficient diet
Text: as §1
(§2) Experimental diets were created by Harlan Teklad (Madison, Wis.). Selenium content of the diets was determined by Covance Inc. (Madison, Wis.). Five (5) animals were included in each of the following treatment groups: a diet deficient in selenium (SD); a diet supplemented with selenomethionine (SM, obtained from Sigma, St. Louis, Mo.) such that the final selenium content of the diet was one (1) part per million; a diet supplemented with sodium selenite (SS, Sigma) such that the final concentration of selenium in this diet was one (1) part per million; or a diet supplemented with the yeast selenium SEL-PLEX (SP, Alltech, Lexington, Ky.), such that the final concentration of selenium in this diet was one (1) part per million. SEL-PLEX. Mice were provided with water and their respective diet ad libitum for 100 days. Diets were stored at the dark at 4° C. and fresh diet was added to feeder twice weekly.
(§3) Tissue sample preparation and microarray analysis. Mice were killed at 100 days of age by cervical dislocation. For intestinal expression studies, the intestine was flushed twice with saline solution and small intestine was measured and divided in three equal segments. A 3-cm region of the middle segment of the small intestine corresponding to the jejunum (˜300 mg of tissue) was cut and rinsed again with physiological saline to completely remove contents, flash frozen in liquid nitrogen and stored at −80° C. For brain (e.g., cerebral cortex) studies, the cerebral cortex was separated from the surrounding brain tissue and was flash frozen in liquid nitrogen and stored at −80° C.
(§4) Total RNA was isolated from using the guanidinium isothiocyanate method of TRIZOL (Life Technologies, Grand Island, N.Y.) and individual samples were used for gene expression profiles. Total RNA was cleaned up by RNeasy Mini kit (Qiagen, Valencia, Calif.). Target RNA was prepared by converting […] total RNA into double-strand cDNA using GeneChip Expression 3′-Amplification Reagents One-Cycle cDNA Synthesis Kit (Affymetrix, Santa Clara, Calif.) with a T7-(dT)24 primer incorporating a T7 RNA polymerase promoter. After cleaning up double-strand cDNA using Genechip Sample Cleanup Module (Affymetrix, Santa Clara, Calif.), biotin-labeled cRNA was synthesized from double-strand cDNA using GeneChip Expression 3′-Amplification Reagents for IVT Labeling (Affymetrix, Santa Clara, Calif.). The biotin-labeled cRNA was cleaned up using Genechip Sample Cleanup Module and was fragmented by heating (35 min at 94° C.).
(§5) Fifteen (15) μg of cRNA fragments were hybridized (16 h at 45° C.) to Mouse Genome 430 2.0 Array (Affymetrix, Santa Clara, Calif.) using GeneChip Hybridization Oven 640. After hybridization, the gene chips were automatically washed and stained with streptavidin-phycoerythrin biotinylated anti-streptavidin using Affymetrix GeneChip Fluidics Station 450. The DNA chips were scanned with Affymetrix GeneChip Scanner 3000 (Affymetrix, Santa Clara, Calif.) to detect the cell signal intensities by laser. All calculations were performed with Affymetrix GeneChip Operating Software (GCOS) version 1.3 after scanning.
(§6) • 1. The spreadsheet containing probe set identifiers and signal intensity values was opened in Microsoft Excel (version 11.1.1 for the Macintosh OS-X operating system) and summary statistics were generated (mean signal intensity for each treatment group, standard error of the mean). Two-tailed t-tests (equal variance) were performed for the following treatment groups: SM vs. SD, SS vs. SD, and SP vs. SD. […]

[3] = tested on: gene expression in the mouse intestine; assay: Gene expression in mouse intestine (microarray) with dietary selenium vs selenium deficient diet; details: diet 1 ppm Se for 100 days vs selenium deficient diet
Text: as §1, §2, §3, §4, §5, §6

For `C[Se]CC[C@H](N)C(=O)O` [SeM, selenomethionine], the “body weights of mice” value ([1]; mouse, in vivo) was “No significant differences”, the “CORS-26 expression, fold reduction” value ([2]; cerebral cortex) was “no alteration” and the “Complement component 1, q subcomponent, gamma polypeptide, C1qg expression, FC” value ([2]; cerebral cortex) was 1.0 fold. For the same molecule, the “expression of complement component genes (summary in words)” value ([2]; cerebral cortex) was “did not provide a statistically significant alteration”, the “Glutathione Peroxidase 1 gene expression, fold change (FC)” value [3] was 4.9 fold and the “Glutathione Peroxidase 3 gene expression, fold change (FC)” value [3] was 4.6 fold. For the same molecule, the “Glyoxalase 1 (Glo1) expression, fold reduction” value [3] was “not significantly affected”, the “Growth arrest and DNA-damage-inducible 45 gamma (Gadd45g) expression, FC” value [3] was −1.5 fold and the “LIM homeobox protein 8 gene (Lhx8) expression, fold upregulation” value [3] was “not significantly different”. The “Neurogenin 3 (Neurog3) expression, fold upregulation” value [3] was “no significant alteration”, the “Prohibitin (Phb) expression, fold upregulation” value [3] was 1.6 fold and the “SelR (Selenoprotein X1) gene expression, fold upregulation” value [3] was “not significantly affected”. For the same molecule, the “Selenoprotein W (SelW) expression, fold upregulation” value [3] was “not significantly altered”, the “Thioredoxin Reductase 1 gene expression, fold increase” value [3] was 1.8 fold and the “expression pattern of GST genes (summary in words)” value [3] was “no alteration”. The “selenoprotein N1 (Sepn1) gene expression, fold increase” value [3] was “not significantly affected”, the “sprouty homolog 2 gene (Spry2) expression, fold reduction” value [3] was “no alteration” and the “transforming growth factor beta 2 (TGF-β2) expression, fold upregulation” value [3] was “not altered”. The “type II iodothyronine deiodinase (Dio2) expression, fold down-regulation” value [3] was “no ability to alter” and the “Gadd45g1p expression in intestinal tissue (in words)” value ([3]; p<0.05) was “decreased expression”.

With `O=[Se](O)O` [Sod-sel, sodium selenite] the “body weights of mice” value ([1]; diets with 1 ppm Se vs selenium deficient diet, FIG. 1) was “No significant differences”, the “Gadd45b expression, FC” value ([2]; brain) was −1.39* fold and the “Gadd45g1p (Growth arrest and DNA-damage inducible 45 gamma interacting protein) expression, FC” value ([2]; brain) was −1.12 fold. For the same molecule, the “Gst mu 7 (Gstm7) expression, FC” value ([2]; brain) was −1.25* fold, the “Gst pi 1 (Gstp1) expression, FC” value ([2]; brain) was 1.02 fold and the “Gst zeta 1 (Gstz1) expression, FC” value ([2]; brain) was −1.3 fold. The “Amyloid beta (A4) precursor protein-binding, family A, member 1 (Apba1) expression, FC” value ([2]; cerebral cortex) was −1.41 fold, the “Amyloid beta (A4) precursor protein-binding, family B, member 1 (Apbb1 or Fe65) expression, FC” value ([2]; cerebral cortex) was −1.32* fold and the “Amyloid beta (A4) precursor-like protein (Aplp 1) expression, FC” value ([2]; cerebral cortex) was −1.55* fold. For the same molecule, the “Cathepsin B expression, FC” value ([2]; cerebral cortex) was −1.13* fold, the “Cathepsin D expression, FC” value ([2]; cerebral cortex) was −1.24* fold and the “Cathepsin O expression, FC” value ([2]; cerebral cortex) was −1.18 fold. The “Cathepsin Z expression, FC” value ([2]; cerebral cortex) was −1.30* fold, the “Complement component 1, q subcomponent binding protein, C1qbp expression, FC” value ([2]; cerebral cortex) was 1.11 fold and the “Complement component 1, q subcomponent, alpha polypeptide, C1qa expression, FC” value ([2]; cerebral cortex) was −1.18 fold. The “Complement component 1, q subcomponent, beta polypeptide, expression, FC” value ([2]; cerebral cortex) was −1.35 fold, the “Complement component 1, q subcomponent, gamma polypeptide, C1qg expression, FC” value ([2]; cerebral cortex) was −1.07 fold and the “Complement component 1, r subcomponent, C1r expression, FC” value ([2]; cerebral cortex) was −1.29 fold. The “Junb expression, FC” value ([2]; cerebral cortex) was −1.59 fold, the “Nicastrin expression, FC” value ([2]; cerebral cortex) was −1.67* fold and the “Presenilin 1 expression, FC” value ([2]; cerebral cortex) was −1.11 fold. The “Cu chaperone for SOD (CCS) expression, fold enhancement” value [3] was 1.28 fold, the “Glutathione Peroxidase 1 gene expression, fold change (FC)” value [3] was 4.1 fold and the “Glutathione Peroxidase 3 gene expression, fold change (FC)” value [3] was 3.5 fold. The “Glutathione S-transferase, alpha 3 (Gsta3) expression, FC” value [3] was −2.3 fold, the “Glutathione S-transferase, mu 1 (Gstm1) expression, FC” value [3] was −2.4 fold and the “Glutathione S-transferase, mu 2 (Gstm2) expression, FC” value [3] was −2.1 fold. The “Glutathione S-transferase, mu 3 (Gstm3) expression, FC” value [3] was −2.7 fold, the “Glutathione S-transferase, theta 2 (Gstt2) expression, FC” value [3] was −1.3 fold and the “Growth arrest and DNA-damage-inducible 45 gamma (Gadd45g) expression, FC” value [3] was −2.0 fold. For the same molecule, the “SOD1 expression, fold enhancement” value [3] was 1.92 fold, the “SelR (Selenoprotein X1) gene expression, fold upregulation” value [3] was 1.3 fold and the “Selenoprotein W (SelW) expression, fold upregulation” value [3] was 5.1 fold. For the same molecule, the “Thioredoxin Reductase 1 gene expression, fold increase” value [3] was 1.7 fold and the “Type 1 iodothyronine deiodinase expression level, fold increase” value [3] was 2.8 fold.
